# In PMC3985639, “A widespread bacteriophage abortive infection system functions through a Type IV toxin–antitoxin mechanism” (Nucleic Acids Research, 2014):
# Molecular target: T1, AbiEii (AbiEii-His6) (Streptococcus agalactiae, UniProt Q8DZ35)
# T1 construct: gene abiGII; full-length, C-terminal His6 tag kept, from pRLD56 in E. coli BL21 co-expressing AbiEi (pRLD69), Ni-NTA purified
# T1 sequence (Q8DZ35 1-281): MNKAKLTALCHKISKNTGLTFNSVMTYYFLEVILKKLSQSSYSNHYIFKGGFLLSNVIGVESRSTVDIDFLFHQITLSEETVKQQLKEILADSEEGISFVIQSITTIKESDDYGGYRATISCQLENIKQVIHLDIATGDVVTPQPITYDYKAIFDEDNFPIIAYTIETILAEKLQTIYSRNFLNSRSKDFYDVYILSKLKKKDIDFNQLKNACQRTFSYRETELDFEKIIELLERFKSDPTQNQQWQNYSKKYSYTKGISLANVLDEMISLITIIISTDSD
# Assay: native PAGE gel shift of [α-32P]-NTP
# Assay type: binding
# Settings: labelled compound; 0.65 pmol; 10 mM Tris-HCl, […] MgCl2, 50 mM KCl, pH 8.3, 37 °C, 1 h
row,Structure (SMILES),native PAGE gel shift of [α-32P]-NTP
1,Nc1ncnc2c1ncn2[C@@H]1O[C@H](COP(=O)(O)OP(=O)(O)OP(=O)(O)O)[C@@H](O)[C@H]1O [ATP],Limited binding to ATP was also observed
2,Nc1nc2c(ncn2[C@@H]2O[C@H](COP(=O)(O)OP(=O)(O)OP(=O)(O)O)[C@@H](O)[C@H]2O)c(=O)[nH]1 [GTP],"Increasing AbiEii-His6 concentrations led to retardation in GTP migration, demonstrating GTP binding"
